In this test the target is SMYD3 (Homo sapiens (Human), UniProt Q9H7B4). The experiment in a line: SMYD3 biochemical assay (SMYD3 enzyme assay on MEKK2 protein substrate, 3H-SAM scintillation proximity assay). Conditions: read-out: SMYD3 Biochem IC50. In short, it runs like this: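 Native full-length human SMYD3, expressed in E. coli, was preincubated with compound for 30 min at room temperature in 25 mM Tris-Cl pH 8.0, 1 mM TCEP, 0.005% BSG and 0.005% Tween 20. ³H-SAM plus GST-MEKK2 then started the reaction. It was stopped with unlabeled SAM (100 uM final), and methylated MEKK2 was read by SPA.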
SMYD3, sequence (Q9H7B4 whole entry): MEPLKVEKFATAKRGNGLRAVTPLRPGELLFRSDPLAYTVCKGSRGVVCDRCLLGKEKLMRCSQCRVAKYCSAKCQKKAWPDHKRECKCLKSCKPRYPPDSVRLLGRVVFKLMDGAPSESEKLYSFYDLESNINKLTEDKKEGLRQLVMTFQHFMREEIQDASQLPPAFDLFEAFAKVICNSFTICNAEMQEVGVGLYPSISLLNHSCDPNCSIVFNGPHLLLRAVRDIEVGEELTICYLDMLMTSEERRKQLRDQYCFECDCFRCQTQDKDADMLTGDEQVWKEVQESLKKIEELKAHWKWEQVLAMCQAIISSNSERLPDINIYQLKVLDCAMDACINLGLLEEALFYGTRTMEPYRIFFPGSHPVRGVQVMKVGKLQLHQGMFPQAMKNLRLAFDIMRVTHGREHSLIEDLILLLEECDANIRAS
(In general: SPA uses beads or plates that emit light when radiolabelled molecules are held near them.)
For the molecule `CC(NC(=O)c1ccc(O)nc1)C1CCN(C(=O)[C@H](C)N)CC1` (stereo partly drawn) [compound 378, N-(1-(1-(L-alanyl)piperidin-4-yl)ethyl)-6-hydroxynicotinamide], the IC50 (commonly the midpoint of a concentration-inhibition curve) is over 100 µM. Next, `Cc1cnccc1C(=O)N[C@H]1CC[C@H](NC(=O)CCN)CC1` [compound 379, N-((1r,4r)-4-(3-aminopropanamido)cyclohexyl)-3-methylisonicotinamide]: over 100 µM; `Cc1cnccc1C(=O)N[C@H]1CC[C@H](N)CC1` [compound 380, N-((1r,4r)-4-aminocyclohexyl)-3-methylisonicotinamide]: over 100 µM. Take `Cc1ccncc1C(=O)N[C@H]1CC[C@H](NC(=O)CCN)CC1` [compound 381, N-((1r,4r)-4-(3-aminopropanamido)cyclohexyl)-4-methylnicotinamide]: the IC50 was over 100 µM.

Consider `Cc1ccc(C(=O)N[C@H]2CC[C@H](NC(=O)CCN)CC2)cn1` [compound 382, N-((1r,4r)-4-(3-aminopropanamido)cyclohexyl)-6-methylnicotinamide], for which the IC50 is over 100 µM. The same measure for `COc1cnc(C(=O)N[C@H]2CC[C@H](NC(=O)CCN)CC2)cn1` [compound 383, N-((1r,4r)-4-(3-aminopropanamido)cyclohexyl)-5-methoxypyrazine-2-carboxamide]: over 100 µM. Next, `COc1cnc(C(=O)N[C@H]2CC[C@H](N)CC2)cn1` [compound 384, N-((1r,4r)-4-aminocyclohexyl)-5-methoxypyrazine-2-carboxamide]: over 100 µM; `NCCC(=O)N[C@H]1CC[C@H](NC(=O)c2cccc(N)n2)CC1` [compound 385, 6-amino-N-((1r,4r)-4-(3-aminopropanamido)cyclohexyl)picolinamide]: over 100 µM. Consider `Nc1cccc(C(=O)N[C@H]2CC[C@H](N)CC2)n1` [compound 386, 6-amino-N-((1r,4r)-4-aminocyclohexyl)picolinamide], for which the IC50 is over 100 µM. The same measure for `CC(NC(=O)c1ccc(N)nc1)C1CCN(C(=O)[C@H](C)N)CC1` (stereo partly drawn) [compound 387, N-(1-(1-(L-alanyl)piperidin-4-yl)ethyl)-6-aminonicotinamide]: over 100 µM; for `NCCC(=O)N[C@H]1CC[C@H](NC(=O)c2ccc(N)nc2)CC1` [compound 388, 6-amino-N-((1r,4r)-4-(3-aminopropanamido)cyclohexyl)nicotinamide]: over 100 µM; for `N[C@H]1CC[C@H](NC(=O)c2cccc(F)n2)CC1` [compound 389, N-((1r,4r)-4-aminocyclohexyl)-6-fluoropicolinamide]: over 100 µM. The same measure for `NCCC(=O)N[C@H]1CC[C@H](NC(=O)c2ccncc2F)CC1` [compound 390, N-((1r,4r)-4-(3-aminopropanamido)cyclohexyl)-3-fluoroisonicotinamide]: over 100 µM. The same measure for `NCCC(=O)N[C@H]1CC[C@H](NC(=O)c2c[nH]c3ccccc23)CC1` [compound 391, N-((1r,4r)-4-(3-aminopropanamido)cyclohexyl)-1H-indole-3-carboxamide]: over 100 µM.

As to `Cc1cc(C(=O)NC(C)C2CCN(C(=O)[C@H](C)N)CC2)ccn1` (stereo partly drawn) [compound 392, N-(1-(1-(L-alanyl)piperidin-4-yl)ethyl)-2-methylisonicotinamide], the IC50 is over 100 µM. The same measure for `Cc1cc(C(=O)N[C@H]2CC[C@H](NC(=O)CCN)CC2)ccn1` [compound 393, N-((1r,4r)-4-(3-aminopropanamido)cyclohexyl)-2-methylisonicotinamide]: over 100 µM; for `Cc1cc(C(=O)N[C@H]2CC[C@H](N)CC2)ccn1` [compound 394, N-((1r,4r)-4-aminocyclohexyl)-2-methylisonicotinamide]: over 100 µM. Next, `CC(NC(=O)c1nc2ccccc2s1)C1CCN(C(=O)[C@H](C)N)CC1` (stereo partly drawn) [compound 395, N-(1-(1-(L-alanyl)piperidin-4-yl)ethyl)benzo[d]thiazole-2-carboxamide]: over 100 µM; `Cc1cnc(C(=O)NC(C)C2CCN(C(=O)[C@H](C)N)CC2)s1` (stereo partly drawn) [compound 396, N-(1-(1-(L-alanyl)piperidin-4-yl)ethyl)-5-methylthiazole-2-carboxamide]: 10.6 µM. Take `Cc1cnc(C(=O)N[C@H]2CC[C@H](NC(=O)CCN)CC2)s1` [compound 397, N-((1r,4r)-4-(3-aminopropanamido)cyclohexyl)-5-methylthiazole-2-carboxamide]: the IC50 came to 27.4 µM. Next, `Cc1cnc(C(=O)N[C@H]2CC[C@H](N)CC2)s1` [compound 398, N-((1r,4r)-4-aminocyclohexyl)-5-methylthiazole-2-carboxamide]: over 100 µM. Next, `CC(NC(=O)c1cccc2c1CC(=O)N2)C1CCN(C(=O)[C@H](C)N)CC1` (stereo partly drawn) [compound 399, N-(1-(1-(L-alanyl)piperidin-4-yl)ethyl)-2-oxoindoline-4-carboxamide]: over 100 µM. As to `N[C@H]1CC[C@H](NC(=O)c2cccc3c2CC(=O)N3)CC1` [compound 400, N-((1r,4r)-4-aminocyclohexyl)-2-oxoindoline-4-carboxamide], the IC50 is over 100 µM. For the molecule `Cc1c(C(=O)N[C@H]2CC[C@H](NC(=O)CCN)CC2)nnn1-c1ccccc1` [compound 401, N-((1r,4r)-4-(3-aminopropanamido)cyclohexyl)-5-methyl-1-phenyl-1H-1,2,3-triazole-4-carboxamide], the IC50 was over 100 µM.

In the case of `Cc1cc(C)c(C(=O)N[C@H]2CC[C@H](NC(=O)CCN)CC2)c(=O)[nH]1` [compound 402, N-((1r,4r)-4-(3-aminopropanamido)cyclohexyl)-4,6-dimethyl-2-oxo-1,2-dihydropyridine-3-carboxamide], the IC50 is over 100 µM. For the molecule `CC1=NN(c2ccc(C(=O)N[C@H]3CC[C@H](N)CC3)cc2)C(=O)C1` [compound 403, N-((1r,4r)-4-aminocyclohexyl)-4-(3-methyl-5-oxo-4,5-dihydro-1H-pyrazol-1-yl)benzamide], the IC50 was over 100 µM. With `NCCC(=O)N[C@H]1CC[C@H](NC(=O)c2cc(O)c3ccccc3n2)CC1` [compound 404, N-((1r,4r)-4-(3-aminopropanamido)cyclohexyl)-4-hydroxyquinoline-2-carboxamide], the IC50 was over 100 µM. Next, `N[C@H]1CC[C@H](NC(=O)c2cnc3ccccc3n2)CC1` [compound 405, N-((1r,4r)-4-aminocyclohexyl)quinoxaline-2-carboxamide]: over 100 µM; `CC(NC(=O)Cc1c[nH]c2cccnc12)C1CCN(C(=O)[C@H](C)N)CC1` (stereo partly drawn) [compound 406, N-(1-(1-(L-alanyl)piperidin-4-yl)ethyl)-2-(1H-pyrrolo[3,2-b]pyridin-3-yl)acetamide]: over 100 µM; `NCCC(=O)N[C@H]1CC[C@H](NC(=O)Cc2c[nH]c3cccnc23)CC1` [compound 407, N-((1r,4r)-4-(2-(1H-pyrrolo[3,2-b]pyridin-3-yl)acetamido)cyclohexyl)-3-aminopropanamide]: over 100 µM. Next, `N[C@H]1CC[C@H](NC(=O)Cc2c[nH]c3cccnc23)CC1` [compound 408, N-((1r,4r)-4-aminocyclohexyl)-2-(1H-pyrrolo[3,2-b]pyridin-3-yl)acetamide]: over 100 µM. Next, `CC(NC(=O)c1cccnc1O)C1CCN(C(=O)[C@H](C)N)CC1` (stereo partly drawn) [compound 409, N-(1-(1-(L-alanyl)piperidin-4-yl)ethyl)-2-hydroxynicotinamide]: 70.4 µM; `NCCC(=O)N[C@H]1CC[C@H](NC(=O)c2cccnc2O)CC1` [compound 410, N-((1r,4r)-4-(3-aminopropanamido)cyclohexyl)-2-hydroxynicotinamide]: 44.5 µM; `N[C@H]1CC[C@H](NC(=O)c2cccnc2O)CC1` [compound 411, N-((1r,4r)-4-aminocyclohexyl)-2-hydroxynicotinamide]: over 100 µM. For `Cn1ccnc1C(=O)N[C@H]1CC[C@H](NC(=O)CCN)CC1` [compound 412, N-((1r,4r)-4-(3-aminopropanamido)cyclohexyl)-1-methyl-1H-imidazole-2-carboxamide], the IC50 is over 100 µM. Turning to `CC(NC(=O)c1ccnn1C)C1CCN(C(=O)[C@H](C)N)CC1` (stereo partly drawn) [compound 413, N-(l-(1-(L-alanyl)piperidin-4-yl)ethyl)-1-methyl-1H-pyrazole-5-carboxamide], the IC50 was over 100 µM. The same measure for `Cn1nccc1C(=O)N[C@H]1CC[C@H](NC(=O)CCN)CC1` [compound 414, N-((1r,4r)-4-(3-aminopropanamido)cyclohexyl)-1-methyl-1H-pyrazole-5-carboxamide]: over 100 µM. Regarding `Cn1nccc1C(=O)N[C@H]1CC[C@H](N)CC1` [compound 415, N-((1r,4r)-4-aminocyclohexyl)-1-methyl-1H-pyrazole-5-carboxamide], the IC50 was over 100 µM. The same measure for `NCCC(=O)N[C@H]1CC[C@H](NC(=O)C2C[C@@H]3C=C[C@H]2C3)CC1` (stereo partly drawn) [compound 416, (1R,4R)-N-((1r,4R)-4-(3-aminopropanamido)cyclohexyl)bicyclo[2.2.1]hept-5-ene-2-carboxamide]: over 100 µM; for `N[C@H]1CC[C@H](NC(=O)C2C[C@@H]3C=C[C@H]2C3)CC1` (stereo partly drawn) [compound 417, (1r,4r)-N-((1r,4R)-4-aminocyclohexyl)bicyclo[2.2.1]hept-5-ene-2-carboxamide]: over 100 µM. The same measure for `CC(NC(=O)c1cccc(N)n1)C1CCN(C(=O)[C@H](C)N)CC1` (stereo partly drawn) [compound 418, N-(1-(1-(L-alanyl)piperidin-4-yl)ethyl)-6-aminopicolinamide]: over 100 µM.

On to `CC(NC(=O)c1cncnc1N)C1CCN(C(=O)[C@H](C)N)CC1` (stereo partly drawn) [compound 419, N-(1-(1-(L-alanyl)piperidin-4-yl)ethyl)-4-aminopyrimidine-5-carboxamide], for which the IC50 is over 100 µM. Next, `NCCC(=O)N[C@H]1CC[C@H](NC(=O)c2cncnc2N)CC1` [compound 420, 4-amino-N-((1r,4r)-4-(3-aminopropanamido)cyclohexyl)pyrimidine-5-carboxamide]: over 100 µM.

The values are drawn from patent US10266526B2, “Substituted 1,2,3-triazoles as SMYD inhibitors for treating cancer” (EPIZYME, INC., priority 2014, dated 2019).
